Peptide text beside a SMILES is read from it.

This assay deals with A. baumannii ATCC 19606, Acinetobacter spp. ATCC 17903, Acinetobacter spp. ATCC 19004, E. coli BL21, S. aureus, S. typhimurium AroA, P. aeruginosa, P. …. As to the kind of experiment: Antibacterial spectrum over the serial dilution panel (Table 6). It counts as cell-based. The conditions noted are these: summary of Table 6. As to the method:
Synthetic peptides were tested for their ability to inhibit bacterial growth in liquid culture. The peptides were added at a concentration of between about 5 μM and about 10 μM to individual wells of 96-deep-well dishes that contained liquid growth media freshly inoculated with one of the following bacteria: A. baumannii ATCC Accession No. 19606, Acinetobacter spp. ATCC 17903, Acinetobacter spp. ATCC 19004, Escherichia coli strain BL21, S. aureus, S. typhimurium strain AroA, P. aeruginosa or P. pneumotropica. After 5-6 hours of shaking at 37° C., growth was measured as absorbance at 595 nm. As a control, cultures were grown in the presence of 0.1% acetonitrile (i.e., the concentration present in 10 μM peptide).
Turning to `CC[C@H](C)[C@H](NC(=O)[C@H](Cc1c[nH]c2ccccc12)NC(=O)[C@H](CC(=O)O)NC(=O)[C@H](CO)NC(=O)[C@H](CO)NC(=O)[C@H](CC(C)C)NC(=O)[C@H](CC(C)C)NC(=O)[C@H](C)NC(=O)[C@H](CO)NC(=O)[C@H](CCCNC(=N)N)NC(=O)[C@H](CC(C)C)NC(=O)[C@@H](N)CCCNC(=N)N)C(=O)N[C@H](C(=O)N[C@@H](CO)C(=O)N[C@@H](CO)C(=O)N[C@@H](CCCNC(=N)N)C(=O)N[C@@H](CC(C)C)C(=O)N[C@@H](CC(C)C)C(=O)NCC(=O)N[C@H](C(=O)N[C@@H](CC(N)=O)C(=O)N[C@@H](CO)C(=O)N[C@@H](CCC(N)=O)C(=O)O)C(C)C)C(C)C` [Ac41] (H-RLRSALLSSDWIVSSRLLGVNSQ-OH; N-terminus and C-terminus assumed), the “selectively inhibited growth of Acinetobacter spp. ATCC 19004, and S. aureus” value is “selectively inhibited growth”. Consider `CSCC[C@H](NC(=O)[C@H](CCCNC(=N)N)NC(=O)[C@H](CO)NC(=O)[C@H](CCCNC(=N)N)NC(=O)[C@H](CCCNC(=N)N)NC(=O)[C@H](CC(N)=O)NC(=O)[C@H](Cc1c[nH]cn1)NC(=O)[C@@H]1CCCN1C(=O)[C@H](Cc1c[nH]cn1)NC(=O)[C@@H]1CCCN1C(=O)[C@H](Cc1c[nH]cn1)NC(=O)[C@@H](NC(=O)[C@H](CCC(N)=O)NC(=O)[C@@H](NC(=O)[C@H](Cc1ccc(O)cc1)NC(=O)[C@H](Cc1c[nH]cn1)NC(=O)[C@H](Cc1c[nH]cn1)NC(=O)[C@H](Cc1c[nH]cn1)NC(=O)[C@@H](N)Cc1c[nH]c2ccccc12)[C@@H](C)O)[C@@H](C)O)C(=O)N[C@@H](CO)C(=O)N[C@@H](CCCNC(=N)N)C(=O)N[C@@H](C)C(=O)N[C@@H](CCCNC(=N)N)C(=O)O` [Ac56] (H-WHHHYTQTHPHPHNRRSRMSRAR-OH; N-terminus and C-terminus assumed), for which the “selectively inhibited growth of S. aureus” value was “selectively inhibited growth”. On to `CC[C@H](C)[C@H](NC(=O)[C@H](CCSC)NC(=O)[C@H](Cc1c[nH]c2ccccc12)NC(=O)[C@@H](N)Cc1c[nH]cn1)C(=O)N1CCC[C@H]1C(=O)N[C@@H](CC(C)C)C(=O)N[C@@H](CCCNC(=N)N)C(=O)N[C@@H](CCCCN)C(=O)NCC(=O)N[C@@H](C)C(=O)N[C@@H](CCC(N)=O)C(=O)N[C@@H](Cc1ccc(O)cc1)C(=O)N[C@@H](CCC(=O)O)C(=O)N[C@@H](CCC(=O)O)C(=O)N[C@@H](CC(C)C)C(=O)N[C@@H](CCCNC(=N)N)C(=O)N[C@@H](CCCCN)C(=O)N[C@@H](CC(C)C)C(=O)N[C@@H](CO)C(=O)N[C@@H](CCCCN)C(=O)NCC(=O)N[C@@H](CC(=O)O)C(=O)N[C@@H](Cc1c[nH]cn1)C(=O)O` [Ac97] (H-HWMIPLRKGAQYEELRKLSKGDH-OH; N-terminus and C-terminus assumed), for which the “selectively inhibited growth of S. aureus” value is given as “selectively inhibited growth”. On to `CC(C)C[C@H](NC(=O)[C@H](CCCCN)NC(=O)[C@H](CCCNC(=N)N)NC(=O)[C@H](CC(C)C)NC(=O)[C@H](CCC(=O)O)NC(=O)[C@H](CCC(=O)O)NC(=O)[C@H](Cc1ccc(O)cc1)NC(=O)[C@H](CCC(N)=O)NC(=O)[C@H](C)NC(=O)CN)C(=O)N[C@@H](CO)C(=O)N[C@@H](CCCCN)C(=O)NCC(=O)N[C@@H](CC(=O)O)C(=O)N[C@@H](Cc1c[nH]cn1)C(=O)N[C@@H](CC(C)C)C(=O)N[C@H](C(=O)N[C@@H](CCCCN)C(=O)N[C@@H](CC(C)C)C(=O)N[C@@H](CCCCN)C(=O)N[C@H](C(=O)N[C@@H](CO)C(=O)N1CCC[C@H]1C(=O)O)[C@@H](C)O)C(C)C` [Ac98] (H-GAQYEELRKLSKGDHLVKLKTSP-OH; N-terminus and C-terminus assumed), for which the “selectively inhibited growth of S. aureus” value is “selectively inhibited growth”.

As for `CC(C)C[C@H](NC(=O)CNC(=O)[C@@H]1CCCN1C(=O)[C@H](Cc1c[nH]c2ccccc12)NC(=O)[C@H](CCCCN)NC(=O)[C@H](CCCCN)NC(=O)[C@H](CCCNC(=N)N)NC(=O)[C@H](C)NC(=O)[C@H](CCC(N)=O)NC(=O)[C@@H]1CCCN1)C(=O)NCC(=O)N[C@@H](CC(N)=O)C(=O)N[C@@H](CCC(=O)O)C(=O)N[C@H](C(=O)N[C@H](C(=O)N[C@@H](C)C(=O)N[C@@H](CCCNC(=N)N)C(=O)N[C@@H](CC(C)C)C(=O)N[C@@H](CC(C)C)C(=O)N[C@H](C(=O)N[C@H](C(=O)N[C@@H](CO)C(=O)N[C@@H](C)C(=O)O)C(C)C)[C@@H](C)O)[C@@H](C)O)C(C)C` [Ac100] (H-PQARKKWPGLGNEVTARLLTVSA-OH; N-terminus and C-terminus assumed), the “selectively inhibited growth of S. aureus” value is listed as “selectively inhibited growth”. On to `CC[C@H](C)[C@H](NC(=O)[C@H](CO)NC(=O)[C@H](CCCNC(=N)N)NC(=O)[C@@H]1CCCN1C(=O)[C@H](Cc1c[nH]c2ccccc12)NC(=O)[C@H](Cc1c[nH]cn1)NC(=O)[C@H](CC(N)=O)NC(=O)[C@H](Cc1c[nH]c2ccccc12)NC(=O)[C@H](CCCCN)NC(=O)[C@H](CCCCN)NC(=O)CNC(=O)[C@H](CCCCN)NC(=O)[C@H](CCC(N)=O)NC(=O)[C@H](CCCCN)NC(=O)[C@H](CCCCN)NC(=O)[C@H](CO)NC(=O)[C@H](CCCNC(=N)N)NC(=O)[C@H](CC(C)C)NC(=O)[C@H](CC(N)=O)NC(=O)[C@H](C)N)C(=O)N[C@@H](CCCCN)C(=O)N[C@@H](C)C(=O)O` [Ac101] (H-ANLRSKKQKGKKWNHWPRSIKA-OH; N-terminus and C-terminus assumed), for which the “selectively inhibited growth of Acinetobacter spp. ATCC 19004, and S. aureus” value is on record as “selectively inhibited growth”. Still for that read-out and setting: with `CC[C@H](C)[C@H](NC(=O)[C@H](CCCNC(=N)N)NC(=O)[C@H](CCCNC(=N)N)NC(=O)[C@H](CS)NC(=O)CNC(=O)[C@H](CO)NC(=O)[C@@H](NC(=O)[C@@H](NC(=O)[C@H](CC(=O)O)NC(=O)[C@H](CCCCN)NC(=O)[C@@H](NC(=O)[C@H](CS)NC(=O)[C@@H](NC(=O)[C@@H](N)Cc1ccccc1)C(C)C)C(C)C)[C@@H](C)O)[C@@H](C)CC)C(=O)N[C@H](C(=O)NCC(=O)N[C@@H](Cc1ccccc1)C(=O)N[C@@H](CS)C(=O)N[C@H](C(=O)NCC(=O)N[C@@H](Cc1c[nH]c2ccccc12)C(=O)N[C@@H](CCCNC(=N)N)C(=O)N[C@@H](CC(C)C)C(=O)O)C(C)C)[C@@H](C)O` [Ac102] (H-FVCVKDTISGCRRITGFCVGWRL-OH; N-terminus and C-terminus assumed) the entry was “selectively inhibited growth”.

Consider `CC[C@H](C)[C@H](NC(=O)[C@H](CCCNC(=N)N)NC(=O)[C@H](CCCNC(=N)N)NC(=O)[C@H](CS)NC(=O)CN)C(=O)N[C@H](C(=O)NCC(=O)N[C@@H](Cc1ccccc1)C(=O)N[C@@H](CS)C(=O)N[C@H](C(=O)NCC(=O)N[C@@H](Cc1c[nH]c2ccccc12)C(=O)N[C@@H](CCCNC(=N)N)C(=O)N[C@@H](CC(C)C)C(=O)N[C@@H](CC(C)C)C(=O)N[C@@H](CC(C)C)C(=O)N[C@@H](CC(C)C)C(=O)N[C@@H](CC(C)C)C(=O)N[C@H](C(=O)NCC(=O)N[C@@H](CO)C(=O)NCC(=O)N[C@H](C(=O)O)C(C)C)[C@@H](C)O)C(C)C)[C@@H](C)O` [Ac103] (H-GCRRITGFCVGWRLLLLLTGSGV-OH; N-terminus and C-terminus assumed), for which the “selectively inhibited growth of S. aureus” value is “selectively inhibited growth”. Turning to `CC[C@H](C)[C@H](NC(=O)[C@H](CC(C)C)NC(=O)[C@H](CCCCN)NC(=O)[C@@H](N)Cc1ccccc1)C(=O)N1CCC[C@H]1C(=O)N[C@H](C(=O)N[C@@H](CCCNC(=N)N)C(=O)N[C@@H](CCCNC(=N)N)C(=O)N[C@@H](CO)C(=O)N[C@@H](CO)C(=O)N[C@@H](CC(C)C)C(=O)N[C@H](C(=O)N[C@@H](CCCCN)C(=O)N[C@@H](CO)C(=O)N[C@@H](CC(C)C)C(=O)N1CCC[C@H]1C(=O)N[C@@H](C)C(=O)N[C@@H](Cc1ccccc1)C(=O)N[C@@H](CCCNC(=N)N)C(=O)N[C@@H](CCCNC(=N)N)C(=O)N[C@@H](CCCCN)C(=O)N[C@@H](C)C(=O)N1CCC[C@H]1C(=O)O)C(C)C)[C@@H](C)O` [Ac116] (H-FKLIPTRRSSLVKSLPAFRRKAP-OH; N-terminus and C-terminus assumed), the “selectively inhibited growth of Acinetobacter spp. ATCC 19004” value is “selectively inhibited growth”. `CC[C@H](C)[C@H](NC(=O)CN)C(=O)NCC(=O)N[C@@H](CCCCN)C(=O)N[C@@H](Cc1ccccc1)C(=O)N[C@@H](CC(C)C)C(=O)N[C@@H](Cc1c[nH]cn1)C(=O)N[C@@H](CO)C(=O)N[C@@H](C)C(=O)N[C@@H](CCCCN)C(=O)N[C@@H](CCCCN)C(=O)N[C@@H](Cc1ccccc1)C(=O)NCC(=O)N[C@@H](CCCCN)C(=O)N[C@@H](C)C(=O)N[C@@H](Cc1ccccc1)C(=O)N[C@H](C(=O)NCC(=O)N[C@@H](CCC(=O)O)C(=O)N[C@H](C(=O)N[C@@H](CCSC)C(=O)N[C@@H](CC(N)=O)C(=O)N[C@@H](CO)C(=O)O)[C@@H](C)CC)C(C)C` [Ac178, reference compound] (H-GIGKFLHSAKKFGKAFVGEIMNS-OH; N-terminus and C-terminus assumed): the “selectively inhibited growth of S. aureus” value is on record as “selectively inhibited growth”.

Values taken from US20110262508A1, “ANTIMICROBIAL COMPOSITIONS, FORMULATIONS AND USES THEREOF” (priority 2007, published 2011).
